US20230150951A1, “2,5- OR 2,6-DISUBSTITUTED HYDROQUINONE DERIVATIVES WITH AT LEAST ONE CARBOXY, SULFO OR AMIDO GROUP USEFUL AS MEDICAMENTS” (OM PHARMA SA, priority 2020, published 2023)
pIC50: −log10 of the molar value. Where two headings read alike, the source gives them in different places.

Assays:
Assay type in all cases: cell-based
[1] = test system: Human neutrophils; assay: Neutrophil adhesion under static conditions; settings: fMLP-stimulated adhesion to fibrinogen; method: 40 μM and 80 μM, concentration of the value not stated
In short: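 Donor buffy-coat neutrophils (3×10^6/ml, PBS with Ca/Mg, 10% FCS, pH 7.2) preincubated 30 min at 37° C with 40 μM or 80 μM compound, then stimulated 1 min at 37° C with 1 nM fMLP on fibrinogen-coated glass. Adherent cells fixed and counted by computer; mean ± SD, unpaired t-test.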

[2] = test system: IL-33; assay: Cytokine release after LPS induction on human whole blood: IL-33
Protocol: (§1) Aim of this in vitro method is to assess compounds effects on release of a panel of cytokines from whole blood following lipopolysaccharide (LPS) induced inflammatory reaction. Whole blood was incubated with compounds for 1 h prior to LPS induction. Cytokine levels in blood were measured using a multiplex FACS-based panel.
(§2) IC50 values determined for the tested compounds expressed in microM [μM] and the values for the inhibition of cytokines were listed for each compound.
(§3) Effect on cytokines release after LPS induction was performed on the compounds dissolved in DMSO or H2O to reach 10-fold concentrated stock solutions and dissolved in culture media.
(§4) Test system: Whole blood was removed from a single donor (into lithium heparin coated tubes; BD Vacutainer; 367886) and diluted 1:5 with RPMI 1640 (Thermo Fisher, 61870036). Within 30 minutes of sampling, blood was incubated with compounds for 1 h prior to LPS stimulation (O111:B4—Sigma L4391; 10 ng/ml final concentration). Stimulation continued under standard cell culture conditions (37° C. with 5% CO2) overnight (18 h), after which plates were centrifuged and supernatant removed and frozen at −80° C. until used for analyses.
(§5) Dilution of test compounds: 10×concentrated solutions (concerning to the final assay concentrations) of each test compound were prepared with the appropriate solvent (in DMSO or in water). These 10× compound solutions (10 μl) were then added to 90 μl pre-diluted whole blood (whole blood: RPMI1640, 1:5) resulting in the final assay concentration.
(§6) Test method: Diluted whole blood (80 μl) was pre-incubated with compounds (10 μl) to give final assay concentrations of 100, 30, 10, 3, 1, 0.3 and 0.1×10^−6M. Blood was incubated at 37° C. with 5% CO2 for 1 h. LPS was diluted in cell culture media to a concentration of […]; 10 μl was added to the whole blood to give a final concentration of 10 ng/ml. Plates were incubated at 37° C. for 18 h. Plates were centrifuged at 3,000 RPM for 5 minutes at 4° C. and supernatant removed and frozen at −80° C. until FACS analysis was carried out.
(§7) Cytokine release was measured using a custom multiplex system (ELISA Genie) according to manufacturers instructions. Prepared samples were run on an Attune NxT flow cytometer (Thermo Fisher).
(§8) Quantification of cytokine release inhibition: known concentration standards were run as part of the cytokine panel to allow quantification of each cytokine concentration in each sample. This was carried out using FCAP Array v3.0 software.
(§9) Results: The dose response relationship on cytokine release following LPS induction of inflammatory response in whole blood was assessed for all compounds. IC50 values were determined for each compound for a panel of cytokines (GM-CSF, IFN-gamma, IL-1beta, IL-2, IL-4, IL-5, IL-6, IL-8, IL-9, IL-10, IL-12p40, IL-13, IL-17A, IL-17F, IL-18, IL-21, IL-22, IL-33, TGF-beta, TNF-alpha, TNF-beta).

[3] = test system: TNF-beta; assay: Cytokine release after LPS induction on human whole blood: TNFβ
Protocol: as §1, §2, §3, §4, §5, §6, §7, §8, §9

[4] = test system: IL-12p70; assay: Cytokine release after LPS induction on human whole blood: IL-12p70
[5] = test system: IL-13; assay: Cytokine release after LPS induction on human whole blood: IL-13
Protocol: as §1, §2, §3, §4, §5, §6, §7, §8, §9

[6] = test system: IL-2; assay: Cytokine release after LPS induction on human whole blood: IL-2
Protocol: as §1, §2, §3, §4, §5, §6, §7, §8, §9

[7] = test system: IL-17A; assay: Cytokine release after LPS induction on human whole blood: IL-17A
Protocol: as §1, §2, §3, §4, §5, §6, §7, §8, §9

[8] = test system: IL-1beta; assay: Cytokine release after LPS induction on human whole blood: IL-1β
Protocol: as §1, §2, §3, §4, §5, §6, §7, §8, §9

[9] = test system: IL-9; assay: Cytokine release after LPS induction on human whole blood: IL-9
Protocol: as §1, §2, §3, §4, §5, §6, §7, §8, §9

[10] = test system: IL-18; assay: Cytokine release after LPS induction on human whole blood: IL-18
Protocol: as §1, §2, §3, §4, §5, §6, §7, §8, §9

[11] = test system: IL-6; assay: Cytokine release after LPS induction on human whole blood: IL-6
Protocol: as §1, §2, §3, §4, §5, §6, §7, §8, §9

[12] = Homo sapiens, LPS 10 ng/ml, 18 h, read-out: Whole Blood: IL-33 IC50
[13] = human whole blood, inhibition of LPS induced inflammation, read-out: IC50 IL-33
[14] = Homo sapiens, LPS 10 ng/ml, 18 h, read-out: Whole Blood: TNF β IC50
[15] = human whole blood, inhibition of LPS induced inflammation, read-out: IC50 β
[16] = Homo sapiens, LPS 10 ng/ml, 18 h, read-out: Whole Blood: IL-12p70 IC50
[17] = human whole blood, inhibition of LPS induced inflammation, read-out: IC50 IL-12p70
[18] = Homo sapiens, LPS 10 ng/ml, 18 h, read-out: Whole Blood: IL-13 IC50
[19] = human whole blood, inhibition of LPS induced inflammation, read-out: IC50 IL-13
[20] = Homo sapiens, LPS 10 ng/ml, 18 h, read-out: Whole Blood: IL-2 IC50
[21] = human whole blood, inhibition of LPS induced inflammation, read-out: IC50 IL-2
[22] = Homo sapiens, LPS 10 ng/ml, 18 h, read-out: Whole Blood: IL-17A IC50
[23] = human whole blood, inhibition of LPS induced inflammation, read-out: IC50 IL-17A
[24] = Homo sapiens, LPS 10 ng/ml, 18 h, read-out: Whole Blood: IL-1β IC50
[25] = human whole blood, inhibition of LPS induced inflammation, read-out: IC50 IL-1b
[26] = Homo sapiens, LPS 10 ng/ml, 18 h, read-out: Whole Blood: IL-9 IC50
[27] = human whole blood, inhibition of LPS induced inflammation, read-out: IC50 IL-9
[28] = Homo sapiens, LPS 10 ng/ml, 18 h, read-out: Whole Blood: IL-18 IC50
[29] = human whole blood, inhibition of LPS induced inflammation, read-out: IC50 IL-18
[30] = Homo sapiens, LPS 10 ng/ml, 18 h, read-out: Whole Blood: IL-6 IC50
[31] = human whole blood, inhibition of LPS induced inflammation, read-out: IC50 IL-6

| Compound | Neutrophil adhesion inhibition [1] | pIC50 [2, 12] | pIC50 [2, 13] | pIC50 [3, 14] | pIC50 [3, 15] | pIC50 [4, 16] | pIC50 [4, 17] | pIC50 [5, 18] | pIC50 [5, 19] | pIC50 [6, 20] | pIC50 [6, 21] | pIC50 [7, 22] | pIC50 [7, 23] | pIC50 [8, 24] | pIC50 [8, 25] | pIC50 [9, 26] | pIC50 [9, 27] | pIC50 [10, 28] | pIC50 [10, 29] | pIC50 [11, 30] | further results |
| --- | --- | --- | --- | --- | --- | --- | --- | --- | --- | --- | --- | --- | --- | --- | --- | --- | --- | --- | --- | --- | --- |
| O=C(O)c1cc(NC(=O)c2cc(O)c(C(=O)Nc3ccc(O)c(C(=O)O)c3)cc2O)ccc1O [Ic-007a, 5-(4-(3-carboxy-4-hydroxyphenylaminocarbonyl)-2,5-dihydroxybenzamido)-2-hydroxy benzoic acid] | 57.5% | 4.74 | 4.74 | 5.19 | 5.19 | 6.31 | 6.31 | 4.52 | 4.52 | < 4.00 | 4.00 | 7.40 | 7.40 | < 4.00 | 4.00 | 4.57 | 4.57 | < 4.00 | 4.00 | 7.05 | pIC50 [11, 31]: 7.05 |
| O=C(O)c1ccccc1CNC(=O)c1cc(O)cc(C(=O)O)c1O [IIa-053a, 3-(2-Carboxyphenylmethylaminocarbonyl)-2,5-dihydroxybenzoic acid] | 20% | 4.92 | 4.92 | 4.04 | 4.04 | 6.57 | 6.57 | 4.52 | 4.52 | 5.78 | 5.78 | < 4.00 | 4.00 | < 4.00 | 4.00 | 5.85 | 5.85 | < 4.00 | 4.00 | 5.66 | pIC50 [11, 31]: 5.66 |
| COC(=O)c1cc(OC(C)=O)cc(CS(=O)(=O)Cc2cc(OC(C)=O)cc(C(=O)OC)c2OC(C)=O)c1OC(C)=O [IVc-059a-E2-A4] | 87.5% | 4.63 | 4.63 | 4.71 | 4.71 | 4.29 | 4.29 | 4.73 | 4.73 | 4.98 | 4.98 | 7.70 | 7.70 | 4.85 | 4.85 | 5.54 | 5.54 | < 4.00 | 4.00 | 6.00 | pIC50 [11, 31]: 6.00 |
| O=C(O)c1cc(NC(=O)c2cc(O)cc(C(=O)Nc3ccc(O)c(C(=O)O)c3)c2O)ccc1O [IIc-007a, 5-(3-(3-carboxy-4-hydroxyphenylaminocarbonyl)-2,5-dihydroxybenzamido)-2-hydroxy benzoic acid] | 64.61% | 6.74 | 6.74 | 6.54 | 6.54 | 5.47 | 5.47 | 6.60 | 6.60 | 4.89 | 4.89 | 8.00 | 8.00 | < 4.00 | 4.00 | 5.67 | 5.67 | < 4.00 | 4.00 | 7.30 | pIC50 [11, 31]: 7.30 |
| O=C(O)c1cc(O)c(CN(Cc2cc(O)c(C(=O)O)cc2O)Cc2cc(O)c(C(=O)O)cc2O)cc1O [IIIc-061a, Tris(4-carboxy-2,5-dihydroxyphenylmethyl)amine] | 58.69% | 6.51 | 6.51 | 6.09 | 6.09 | 4.43 | 4.43 | 6.51 | 6.51 | < 4.00 | 4.00 | 7.40 | 7.40 | < 4.00 | 4.00 | 5.05 | 5.05 | 4.49 | 4.49 | 6.74 | pIC50 [11, 31]: 6.74 |
| O=C(O)c1cc(O)c(C(=O)Nc2ccc(-c3nnn[nH]3)cc2)cc1O [Ia-003a-Tz, 4-(4-(1H-tetrazol-5-yl)phenyl-aminocarbonyl)-2,5-dihydroxybenzoic acid] | 30.33% | 4.14 | 4.14 | 4.26 | 4.26 | 5.90 | 5.90 | 4.05 | 4.05 | 4.37 | 4.37 | 7.15 | 7.15 | < 4.00 | 4.00 | 5.44 | 5.44 | < 4.00 | 4.00 | 5.85 | pIC50 [11, 31]: 5.85 |
